Source: the NIST ThermoML archive (doi:10.1021/je800416y)
Numbers after ± are expanded uncertainties.

Test: xn = mol fraction of the nth substance listed
Conditions: 101 kPa, Liquid

SMILES: CN(CCO)CCO [N-methyldiethanolamine] + O
- mass density (298.15 K, x1 = 0.0128): 1004.06 ± 0.98 kg/m3
- mass density (298.15 K, x1 = 0.0212): 1008.41 ± 1 kg/m3
- mass density (298.15 K, x1 = 0.0498): 1020.08 ± 1.1 kg/m3
- mass density (298.15 K, x1 = 0.0645): 1026.39 ± 1.2 kg/m3
- mass density (298.15 K, x1 = 0.0799): 1030.85 ± 1.2 kg/m3
- mass density (298.15 K, x1 = 0.1332): 1042.8 ± 1.3 kg/m3
- mass density (298.15 K, x1 = 0.1557): 1045.44 ± 1.4 kg/m3
- mass density (298.15 K, x1 = 0.1944): 1049.91 ± 1.4 kg/m3
- mass density (298.15 K, x1 = 0.2407): 1050.84 ± 1.4 kg/m3
- mass density (298.15 K, x1 = 0.2725): 1052.41 ± 1.4 kg/m3
- mass density (298.15 K, x1 = 0.366): 1052.54 ± 1.4 kg/m3
- mass density (298.15 K, x1 = 0.4302): 1050.97 ± 1.4 kg/m3
- mass density (298.15 K, x1 = 0.5642): 1046.85 ± 1.3 kg/m3
- mass density (298.15 K, x1 = 0.6687): 1041.44 ± 1.2 kg/m3
- mass density (298.15 K, x1 = 0.7531): 1039.27 ± 1.2 kg/m3
- mass density (303.15 K, x1 = 0.0128): 1002.48 ± 0.97 kg/m3
- mass density (303.15 K, x1 = 0.0212): 1006.7 ± 1 kg/m3
- mass density (303.15 K, x1 = 0.0498): 1017.93 ± 1.1 kg/m3
- mass density (303.15 K, x1 = 0.0645): 1023.98 ± 1.2 kg/m3
- mass density (303.15 K, x1 = 0.0799): 1028.25 ± 1.2 kg/m3
- mass density (303.15 K, x1 = 0.1332): 1039.65 ± 1.3 kg/m3
- mass density (303.15 K, x1 = 0.1557): 1042.17 ± 1.3 kg/m3
- mass density (303.15 K, x1 = 0.1944): 1046.42 ± 1.4 kg/m3
- mass density (303.15 K, x1 = 0.2407): 1048.11 ± 1.4 kg/m3
- mass density (303.15 K, x1 = 0.2725): 1048.8 ± 1.4 kg/m3
- mass density (303.15 K, x1 = 0.366): 1048.78 ± 1.3 kg/m3
- mass density (303.15 K, x1 = 0.4302): 1047.2 ± 1.3 kg/m3
- mass density (303.15 K, x1 = 0.5642): 1043.08 ± 1.3 kg/m3
- mass density (303.15 K, x1 = 0.6687): 1037.68 ± 1.2 kg/m3
- mass density (303.15 K, x1 = 0.7531): 1035.87 ± 1.2 kg/m3
- mass density (308.15 K, x1 = 0.0128): 1000.7 ± 0.95 kg/m3
- mass density (308.15 K, x1 = 0.0212): 1004.8 ± 0.99 kg/m3
- mass density (308.15 K, x1 = 0.0498): 1015.63 ± 1.1 kg/m3
- mass density (308.15 K, x1 = 0.0645): 1021.43 ± 1.1 kg/m3
- mass density (308.15 K, x1 = 0.0799): 1025.53 ± 1.2 kg/m3
- mass density (308.15 K, x1 = 0.1332): 1036.42 ± 1.3 kg/m3
- mass density (308.15 K, x1 = 0.1557): 1038.83 ± 1.3 kg/m3
- mass density (308.15 K, x1 = 0.1944): 1042.86 ± 1.3 kg/m3
- mass density (308.15 K, x1 = 0.2407): 1044.45 ± 1.3 kg/m3
- mass density (308.15 K, x1 = 0.2725): 1045.14 ± 1.3 kg/m3
- mass density (308.15 K, x1 = 0.366): 1044.97 ± 1.3 kg/m3
- mass density (308.15 K, x1 = 0.4302): 1043.38 ± 1.3 kg/m3
- mass density (308.15 K, x1 = 0.5642): 1039.28 ± 1.2 kg/m3
- mass density (308.15 K, x1 = 0.6687): 1033.89 ± 1.2 kg/m3
- mass density (308.15 K, x1 = 0.7531): 1031.92 ± 1.1 kg/m3
- mass density (313.15 K, x1 = 0.0128): 998.731 ± 0.95 kg/m3
- mass density (313.15 K, x1 = 0.0212): 1002.72 ± 0.97 kg/m3
- mass density (313.15 K, x1 = 0.0498): 1013.18 ± 1.1 kg/m3
- mass density (313.15 K, x1 = 0.0645): 1018.77 ± 1.1 kg/m3
- mass density (313.15 K, x1 = 0.0799): 1022.69 ± 1.1 kg/m3
- mass density (313.15 K, x1 = 0.1332): 1033.1 ± 1.2 kg/m3
- mass density (313.15 K, x1 = 0.1557): 1035.41 ± 1.3 kg/m3
- mass density (313.15 K, x1 = 0.1944): 1039.23 ± 1.3 kg/m3
- mass density (313.15 K, x1 = 0.2407): 1040.73 ± 1.3 kg/m3
- mass density (313.15 K, x1 = 0.2725): 1041.41 ± 1.3 kg/m3
- mass density (313.15 K, x1 = 0.366): 1041.1 ± 1.3 kg/m3
- mass density (313.15 K, x1 = 0.4302): 1039.51 ± 1.2 kg/m3
- mass density (313.15 K, x1 = 0.5642): 1035.45 ± 1.2 kg/m3
- mass density (313.15 K, x1 = 0.6687): 1030.08 ± 1.1 kg/m3
- mass density (313.15 K, x1 = 0.7531): 1028.73 ± 1.1 kg/m3
- mass density (318.15 K, x1 = 0.0128): 996.584 ± 0.97 kg/m3
- mass density (318.15 K, x1 = 0.0212): 1000.48 ± 0.94 kg/m3
- mass density (318.15 K, x1 = 0.0498): 1010.59 ± 1 kg/m3
- mass density (318.15 K, x1 = 0.0645): 1015.98 ± 1.1 kg/m3
- mass density (318.15 K, x1 = 0.0799): 1019.74 ± 1.1 kg/m3
- mass density (318.15 K, x1 = 0.1332): 1029.71 ± 1.2 kg/m3
- mass density (318.15 K, x1 = 0.1557): 1031.92 ± 1.2 kg/m3
- mass density (318.15 K, x1 = 0.1944): 1035.54 ± 1.2 kg/m3
- mass density (318.15 K, x1 = 0.2407): 1036.95 ± 1.3 kg/m3
- mass density (318.15 K, x1 = 0.2725): 1037.63 ± 1.3 kg/m3
- mass density (318.15 K, x1 = 0.366): 1037.2 ± 1.2 kg/m3
- mass density (318.15 K, x1 = 0.4302): 1035.6 ± 1.2 kg/m3
- mass density (318.15 K, x1 = 0.5642): 1031.61 ± 1.1 kg/m3
- mass density (318.15 K, x1 = 0.6687): 1026.25 ± 1.1 kg/m3
- mass density (318.15 K, x1 = 0.7531): 1025.02 ± 1.1 kg/m3
- mass density (323.15 K, x1 = 0.0128): 994.273 ± 0.99 kg/m3
